In patent publication US20260176289A1, “SMALL MOLECULE INHIBITORS OF KRAS PROTEINS” (Merck Sharp & Dohme LLC, priority 2022, published 2026) one finds IC50 data, which are given here for nine molecules.

Structures are written as SMILES. Where two headings read alike, the source gives them in different places.

For one assay, the system named is AsPC-1 cells. Kind of assay: Cellular phospho-ERK assay, AsPC-1 cells (homozygous KRAS-G12D). It counts as cell-based. To be noted: Homo sapiens, ASPC1, 2 h, read-out: AsPC1 pERK IC50. The method in brief: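 Cells seeded at 10,000-15,000 per well were incubated overnight, then exposed to compound for 2 hours at 37 °C in a 10-point, 1:3 series topping at 30 μM final. Lysates were assayed by Alpha SureFire Ultra multiplex for p-ERK and total ERK; IC50 came from a 4-parameter logistic fit of their ratio.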

Another assay concerns the target KRAS-WT (Homo sapiens, UniProt P01116). Description: SOS-catalyzed nucleotide exchange assay (Procedure A, TR-FRET), KRAS-WT. Type of assay: biochemical. To be noted: nucleotide exchange, read-out: KRAS WT GNE IC50. In outline: (§1)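 TR-FRET readout (520/495 nm) of SOS-driven exchange of Bodipy-GDP for unlabeled GTP (3 mM) on biotinylated, Tb-streptavidin-bound RAS, after 60 min compound preincubation at room temperature. Exchange times and RAS/SOS levels: 60 min for WT (1/40 nM), G12C triple mutant (3/40 nM), NRAS (1.25/40 nM); 90 min for G12V (1.25/160 nM). Four-parameter logistic fits on normalized effect.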
For orientation: In TR-FRET formats the signal depends on donor and acceptor labels being close together.

Another assay addresses KRAS-G12V (Homo sapiens, UniProt P01116, G12V). Kind of assay: SOS-catalyzed nucleotide exchange assay (Procedure A, TR-FRET), KRAS-G12V. It counts as biochemical. To be noted: nucleotide exchange, read-out: KRAS G12V GNE IC50. In outline: as §1
Another assay deals with KRAS-G12D (Homo sapiens, UniProt P01116, G12D). Description: SOS-catalyzed nucleotide exchange assay (Procedure A, TR-FRET), KRAS-G12D. The settings on record: nucleotide exchange, read-out: KRAS G12D GNE IC50. Type of assay: biochemical. The method in brief: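 Signal ratio (520/495 nm, excitation 340 nm) reports Bodipy-GDP retention on biotinylated RAS after SOS-catalyzed exchange with 3 mM GTP. SOS was 40 nM, except 160 nM for G12V. Room-temperature exchange lasted 60 min (90 min for G12V), following a 60 min compound preincubation.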
KRAS-G12D, sequence (P01116 with tags, fused parts or gaps isoform P01116-2 G12D): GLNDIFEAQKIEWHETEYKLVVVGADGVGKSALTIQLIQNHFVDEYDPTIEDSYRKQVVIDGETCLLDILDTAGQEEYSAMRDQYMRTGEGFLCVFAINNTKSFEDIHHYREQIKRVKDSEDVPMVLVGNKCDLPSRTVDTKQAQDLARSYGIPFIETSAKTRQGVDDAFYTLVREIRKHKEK

A further assay deals with MKN-1 cells. Kind of assay: Cellular phospho-ERK assay, MKN-1 cells (amplified wild-type KRAS). It counts as cell-based. The settings on record: Homo sapiens, read-out: MKN1 pERK IC50. The procedure: (§2) Procedure for Cellular Phospho-ERK Assay in KRAS Wild Type and Mutant (G12D, G12V) Cell Lines
(§3) MKN-1 cells (JCRB JCRB0252) containing amplified wild-type KRAS, were cultured in growth medium that contains RPMI 1640-GlutaMAX™-I (ThermoFisher Scientific 61870) containing 10% heat inactivated fetal bovine serum (ThermoFisher Scientific 10091148), 1 mM sodium pyruvate and 10 mM HEPES. PANC08.13 cells (ATCC® CRL-2551™), containing homozygous KRAS-G12D activating mutation, were cultured in growth medium made of RPMI1640-GlutaMAX™-I (ThermoFisher Scientific 61870) containing 15% heat inactivated fetal bovine serum (ThermoFisher Scientific 10091148)). AsPC-1 cells (ATCC® CRL-1682™), containing homozygous KRAS-G12D activating mutation, were cultured in T150 flask in growth medium (RPMI medium 1640-GlutaMAX™-I (ThermoFisher Scientific 61870) containing 10% fetal bovine serum (ThermoFisher Scientific 10091148)). SW620 cells (ATCC® […]), containing homozygous KRAS-G12V activating mutation, were cultured in growth medium that contains RPMI 1640-GlutaMAX™-I (ThermoFisher Scientific 61870) containing 10% heat inactivated fetal bovine serum (ThermoFisher Scientific 10091148).
(§4) Cells for the assay were harvested in growth medium after TrypLE (ThermoFisher scientific 12604021) digestion and were seeded in a 384-well collagen coated cell culture plate (Corning 356702) at a density of 10,000-15,000 cells/20 μL/well, and incubated at 37° C., 5% CO2 overnight. The compound (with 10 mM stock concentration) dose-response titrations were prepared [30 μM final ERK detection assay concentration and 1:3 dilutions, 10-point dose response] and appropriate amounts (270 nL) of test compounds were dispensed in a 384-well intermediate plate using an Echo 550 liquid handler. 30 μL/well of RPMI medium 1640-GlutaMAX™—I was added to the intermediate plate and the contents of the intermediate plate (10 μL/well) were then transferred to the 384-well collagen coated cell culture plate, which was incubated at 37° C., 5% CO2 for 2 hours. After removal of medium from the collagen coated cell culture plate, cells were lysed in lysis buffer from Alpha SureFire® Ultra™ Multiplex p-ERK and total ERK assay kit (PerkinElmer MPSU-PTERK) containing Halt™ Protease and Phosphatase inhibitor cocktail (ThermoFisher Scientific 78446) at room temperature with constant shaking at 300 rpm for 30 minutes. The cell lysates were then transferred to an OptiPlate-384 plate (PerkinElmer 6005620), and the phosphorylation of ERK (p-ERK) and total ERK levels were detected by Alpha SureFire® Ultra™ Multiplex p-EEK kit and total ERK assay kit (PerkinElmer MPSU-PTERK) following the manufacturer's protocol. Assay plates were read on a En Vision Multimode Plate Reader (PerkinElmer), and the ratio of p-ERK vs. total ERK in each well was used as the final readout. Dose response curves were analyzed using a 4-parameter logistic model to calculate IC50 values using Spotfire software.

The test system of another assay is SW620 cells. Description: Cellular phospho-ERK assay, SW620 cells (homozygous KRAS-G12V). It counts as cell-based. To be noted: Homo sapiens, read-out: SW620 pERK IC50. On the procedure:
as §2, §3, §4

The mark [1] stands for this setting: amplified wild-type KRAS, 2 hours.
Where [2] appears, read: SW-620, 2 hours compound incubation.

KRAS-G12V, sequence (P01116 with tags, fused parts or gaps isoform P01116-2 G12V): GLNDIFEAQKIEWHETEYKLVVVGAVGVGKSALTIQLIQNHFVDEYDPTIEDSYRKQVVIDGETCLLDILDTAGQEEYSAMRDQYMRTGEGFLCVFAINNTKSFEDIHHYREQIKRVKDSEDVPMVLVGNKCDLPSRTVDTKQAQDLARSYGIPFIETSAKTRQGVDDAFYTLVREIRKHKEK
KRAS-WT, sequence (P01116 with tags, fused parts or gaps isoform P01116-2): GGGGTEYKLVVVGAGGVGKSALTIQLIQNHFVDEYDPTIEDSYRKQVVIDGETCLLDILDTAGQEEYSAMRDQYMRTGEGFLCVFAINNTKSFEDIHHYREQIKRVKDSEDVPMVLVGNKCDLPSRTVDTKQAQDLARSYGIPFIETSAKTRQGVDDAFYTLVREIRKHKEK

The term IC50 denotes the concentration that inhibits the measured activity by half. Turning to `CCC1(F)c2c(cc3[nH]ncc3c2-c2nccc3c2sc2nc(OC[C@@]45CCCN4C[C@H](F)C5)nc(N4CCOC[C@@](C)(O)C4)c23)CC1(F)F` (stereo partly drawn) [Ex-98, (6S)-4-(8-(5-ethy1-5,6,6-trifluoro-1,5,6,7-tetrahydrocyclopenta[f]in-dazol-4-yl)-2-(((2R,7aS)-2-fluorotetrahydro-1H-pyrrolizin-7a(5H)-yl)methoxy)pyrido[4′,3′:4,5]thi-eno[2,3-d]pyrimidin-4-yl)-6-methyl-1,4-oxazepan-6-ol], the IC50 with AsPC-1 cells (KRAS-G12D, 2 hours) was 175 nM; on KRAS-WT it was 61.3 nM; at KRAS-G12V, 20.8 nM; on KRAS-G12D it was 18.9 nM; in the assay with MKN-1 cells (setting [1]), 72.8 nM; in the assay on SW620 cells (SW-620, KRAS-G12V, 2 hours), 68.8 nM.
`Cc1cc2[nH]ncc2c(-c2nccc3c2sc2nc(OC[C@@]45CCCN4C[C@H](F)C5)nc(N4CCOC[C@@](C)(O)C4)c23)c1C1(C)CC1` [Ex-62, (6S)-4-(2-(((2R,7aS)-2-fluorotetrahydro-1H-pyrrolizin-7a(5H)-yl)methoxy)-8-(6-methyl-5-(1-methylcyclopropyl)-1H-indazol-4-yl)pyrido[4′,3′:4,5]thieno [2,3-d]pyrimidin-4-yl)-6-methyl-1,4-oxazepan-6-ol]: the IC50 in the assay with AsPC-1 cells (KRAS-G12D, 2 hours) worked out at 175 nM; on KRAS-WT, 53.7 nM; on KRAS-G12V it was 21.7 nM; at KRAS-G12D it was 29.8 nM; in the assay on MKN-1 cells (setting [1]) it was 251 nM; in the assay with SW620 cells (SW-620, KRAS-G12V, 2 hours), 131 nM.
Turning to `Cc1cc2[nH]ncc2c(-c2nccc3c2sc2nc(OC[C@@]45CCCN4C[C@H](F)C5)nc(N4CCOC[C@@](C)(O)C4)c23)c1C1CC1(F)F` (stereo partly drawn) [Ex-63, (6S)-4-(8-(5-(2,2-difluorocyclopropyl)-6-methyl-1H-indazol-4-yl)-2-(((2R,7aS)-2-fluorotetrahydro-1H-pyrrolizin-7a(5H)-yl)methoxy)pyrido[4′,3′:4,5]thi-eno[2,3-d]pyrimidin-4-yl)-6-methyl-1,4-oxazepan-6-ol], the IC50 in the assay on AsPC-1 cells (KRAS-G12D, 2 hours) stood at 185 nM; at KRAS-WT it was 55.2 nM; at KRAS-G12V, 39.3 nM; on KRAS-G12D, 19.6 nM; in the assay on MKN-1 cells (setting [1]) it was 114 nM; in the assay with SW620 cells (SW-620, KRAS-G12V, 2 hours), 121 nM.
Consider `C[C@@]1(O)COCCN(c2nc(OC[C@@]34CCCN3C/C(=C\F)C4)nc3sc4c(-c5c(C6CC6)c(C(F)(F)F)cc6[nH]ncc56)nccc4c23)C1` [Ex-87, (6S)-4-(8-(5-cyclopropyl-6-(trifluoromethyl)-1H-indazol-4-yl)-2-(((S,Z)-2-(fluoromethylene)tetrahy-dro-1H-pyrrolizin-7a(5H)-yl)methoxy)pyrido[4′,3′:4,5]thi-eno[2,3-d]pyrimidin-4-yl)-6-methyl-1,4-oxazepan-6-ol], for which the IC50 with AsPC-1 cells (KRAS-G12D, 2 hours) worked out at 176 nM; on KRAS-WT it was 80 nM; at KRAS-G12V, 31.4 nM; on KRAS-G12D, 41.6 nM; in the assay on MKN-1 cells (setting [1]), 109 nM; in the assay on SW620 cells (SW-620, KRAS-G12V, 2 hours), 96.6 nM.
Take `CN1CCC[C@H]1COc1nc(N2CCOC[C@@](C)(O)C2)c2c(n1)sc1c(-c3c(C4CC4)c(Cl)cc4[nH]ncc34)nccc12` [Ex-80, (6S)-4-(8-(6-chloro-5-cyclopropyl-1H-indazol-4-yl)-2-(((S)-1-methylpyrrolidin-2-yl)methoxy)pyrido[4′,3′:4,5]thi-eno[2,3-d]pyrimidin-4-yl)-6-methy1-1,4-oxazepan-6-ol]: the 50% inhibitory concentration (IC50) turned out to be 200 nM in the assay with AsPC-1 cells (KRAS-G12D, 2 hours); 89 nM on KRAS-WT; 42 nM at KRAS-G12V; 32.7 nM on KRAS-G12D; 143 nM in the assay on MKN-1 cells (setting [1]); 131 nM with SW620 cells (SW-620, KRAS-G12V, 2 hours).
Consider `CN1CCC[C@@]2(COc3nc(N4CCOC[C@@](C)(O)C4)c4c(n3)sc3c(-c5c(C6CC6)c(Cl)cc6[nH]ncc56)nccc34)CCC[C@@H]12` [Ex-217, (6S)-4-(8-(6-chloro-5-cyclopropyl-1H-indazol-4-yl)-2-(((4aS,7aR)-1-meth-yloctahydro-4aH-cyclopenta[b]pyridin-4a-yl)meth-oxy)pyrido[4′,3′:4,5]thieno[2,3-d]pyrimi-din-4-yl)-6-methyl-1,4-oxazepan-6-ol], for which the IC50 with AsPC-1 cells (2 hours compound incubation) worked out at 47.7 nM; on KRAS-WT, 8.85 nM; on KRAS-G12V, 13.1 nM; on KRAS-G12D, 3.46 nM; in the assay with MKN-1 cells (2 hours compound incubation) it was 46.9 nM; in the assay with SW620 cells (setting [2]), 10.9 nM.
In the case of `C#CC1=CCCc2cc3[nH]ncc3c(-c3nccc4c3sc3nc(OC[C@@]56CCCN5C[C@H](F)C6)nc(N5CCOC[C@@](C)(O)C5)c34)c21` [Ex-173, (6S)-4-(8-(5-ethynyl-7,8-dihydro-1H-benzo[f]indazol-4-yl)-2-(((2R,7aS)-2-fluorotetrahydro-1H-pyrrolizin-7a(5H)-yl)methoxy)pyrido[4′,3′:4,5]thieno[2,3-d]pyrimidin-4-yl)-6-methyl-1,4-oxazepan-6-ol], the IC50 in the assay on AsPC-1 cells (2 hours compound incubation) was found to be 161 nM; on KRAS-WT, 38.2 nM; on KRAS-G12V, 50.1 nM; at KRAS-G12D it was 18.9 nM; in the assay on MKN-1 cells (2 hours compound incubation) it was 56.9 nM; with SW620 cells (setting [2]), 61.1 nM.
Turning to `C[C@@]1(O)COCCN(c2nc(OC[C@@]34CCCN3C[C@H](F)C4)nc3sc4c(-c5c6c(cc7[nH]ncc57)CC=C6C5CC5)nccc4c23)C1` [Ex-105, (6S)-4-(8-(5-cyclopropyl-1,7-dihydrocyclopenta[f]inda-zol-4-yl)-2-(((2R,7aS)-2-fluorotetrahydro-1H-pyrrolizin-7a(5H)-yl)methoxy)pyrido[4′,3′:4,5]thieno[2,3-d]pyrimidin-4-yl)-6-methyl-1,4-oxazepan-6-ol], the IC50 in the assay on AsPC-1 cells (KRAS-G12D, 2 hours) was 158 nM; at KRAS-WT it was 72.2 nM; at KRAS-G12V it was 37.2 nM; on KRAS-G12D it was 26.7 nM; in the assay with MKN-1 cells (setting [1]), 136 nM; with SW620 cells (SW-620, KRAS-G12V, 2 hours), 80.5 nM.
For the molecule `C[C@@]1(O)COCCN(c2nc(OC[C@@]34CCCN3C[C@]3(CC3(F)F)C4)nc3sc4c(-c5c(C6CC6)c(Cl)cc6[nH]ncc56)nccc4c23)C1` [Ex-212, (6S)-4-(8-(6-chloro-5-cyclopropyl-1H-indazol-4-yl)-2-(((1R,7a'S)-2,2-difluorodihydro-1′H,3′H-spiro[cyclo-propane-1,2′-pyrrol-izin]-7a′(5′H)-yl)-methoxy)pyrido [4′,3′:4,5]thieno[2,3-d]pyrimidin-4-yl)-6-methyl-1,4-oxaze-pan-6-ol], the IC50 with AsPC-1 cells (2 hours compound incubation) was found to be 67.3 nM; on KRAS-WT it was 17.8 nM; at KRAS-G12V it was 39.8 nM; at KRAS-G12D it was 4.75 nM; in the assay on MKN-1 cells (2 hours compound incubation), 89.8 nM; with SW620 cells (setting [2]) it was 56.1 nM.
